Experimental data from patent US12187773B2, “Modified GIP peptide analogues” (Antag Therapeutics ApS, priority 2018, dated 2025).
Where a SMILES comes first, the peptide text is derived from it. The star is where a group is joined. C16 diacid = O=C(O)CCCCCCCCCCCCCCC(=O)*

How the values were obtained:
Format in all cases: cell-based
human GIP receptor [1] = target: T1, human GIP receptor (Homo sapiens, UniProt P48546); experiment: cAMP agonism (CisBio cAMP Dynamic 2 HTRF assay)
T1 sequence (P48546 22-466): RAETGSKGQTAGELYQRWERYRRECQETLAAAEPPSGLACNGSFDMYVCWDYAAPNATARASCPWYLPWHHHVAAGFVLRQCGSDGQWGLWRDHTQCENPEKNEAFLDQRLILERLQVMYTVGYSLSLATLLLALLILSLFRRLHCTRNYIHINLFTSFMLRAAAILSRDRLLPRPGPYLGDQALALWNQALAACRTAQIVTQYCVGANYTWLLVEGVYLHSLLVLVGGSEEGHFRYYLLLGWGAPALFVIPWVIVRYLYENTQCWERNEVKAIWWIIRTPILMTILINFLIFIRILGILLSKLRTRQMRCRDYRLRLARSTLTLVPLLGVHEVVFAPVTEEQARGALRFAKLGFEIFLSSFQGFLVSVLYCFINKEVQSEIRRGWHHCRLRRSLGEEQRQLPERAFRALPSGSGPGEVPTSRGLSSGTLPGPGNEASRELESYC
Experimental: To test for agonistic properties at the GIP receptor, compounds were diluted and added to cells as described above and incubated for 30 min at 37° C. The resulting increase in intracellular cAMP was determined using the CisBio cAMP Dynamic 2 HTRF Assay Kit as described above.

human GIP receptor [2] = target: T1, human GIP receptor; experiment: cAMP antagonism (CisBio cAMP Dynamic 2 HTRF assay); parameters: pCMV-Script vector; conditions: Table 1C, CisBio, HEK-293 cells
Experimental: The in vitro functional activity of compounds towards human GIP receptor can also be determined in HEK-293 cells transiently expressing the receptor. On the day of the assay, cells were resuspended in HBSS buffer (Gibco, 14025-50) supplemented with 20 mM HEPES (Gibco, 15630-106), 0,1% Pluronic F-68 (Gibco, 24040-032) and 0,1% casein (Sigma, C4765), and plated in 384-well plates at a density of 5000 cells/well. The GIP peptide analogues of the present disclosure were diluted in HBSS buffer supplemented with 20 mM HEPES, 0,1% pluronic, 0,1% casein and 500 uM IBMX. […] The resulting decrease in intracellular cAMP was quantitatively determined using the CisBio cAMP Dynamic 2 HTRF Assay Kit. The assay is based on a competition between native cAMP produced by cells and cAMP labeled with the dye d2 for binding to a cryptate labeled antibody. The specific signal (i.e. energy transfer signal) is inversely proportional to the concentration of cAMP in the sample.
The cAMP-d2 conjugate and the antibody anti-cAMP-Cryptate, both diluted in lysis buffer provided in the kit, were added to the cells according to the manufacturer's protocol. The resulting competitive assay was incubated for 60 minutes at room temperature, and the signal was detected by using a PerkinElmer Envision® instrument with excitation at 320 nm and emission at 665 nm and 620 nm. The HTRF ratio (emission at 665 nm/620 nm*10,000) is inversely proportional to the amount of cAMP present and is converted to nM cAMP per well using a cAMP standard curve. The dose-response curves were fitted using the non-linear regression analysis (four-logistic parameter equation) in GraphPad Prism, whereby pIC50 values were estimated.

human GIP receptor [3] = target: T1, human GIP receptor; experiment: cAMP accumulation, agonism (DiscoveRx HitHunter cAMP XS assay); parameters: host or cells: COS-7 (transient, calcium phosphate; pCMV-Script vector)
Experimental: Transient transfected COS-7 cells expressing the human GIP receptor were seeded in white 96-well plates with a density of 3.5*10^4/well. The day after, the cells were washed twice with Hepes buffered saline (HBS) buffer and incubated with HBS and 1 mM 3-isobutyl-1-methylxanthine (IBMX) for 30 min at 37° C. To test for agonistic properties, ligands were added and incubated for 30 min at 37° C. In order to test for antagonistic properties, the cells were preincubated with the antagonists for 10 min prior to the addition of the agonist and subsequent incubated for 20 additional min. The HitHunter™ cAMP XS assay (DiscoveRx) was carried out according to the manufacturer's instructions.
In order to develop a GIP receptor antagonist with improved antagonistic properties, individual amino acid substitutions were conducted on GIP(3-30)NH2 and in particular at positions: 16, 18, 30 or 3, 16, 18, 30. The obtained peptides were lipidated at position 18 directly or via a linker. Both the agonistic and antagonistic profiles of the compounds were tested in cAMP accumulation experiments done in transiently transfected COS-7 cells expressing the human GIP receptor. To investigate if these mutated analogues still retained their antagonistic properties, their ability to inhibit a GIP-mediated cAMP response corresponding to 50-80% of maximum activation was examined.

[4] = HEK293, read-out: cAMP agonism, % Efficacy, Table 1C, HEK-293 cells
[5] = COS-7, read-out: cAMP agonism, Emax
[6] = HEK293, Table 1C, HEK-293 cells, read-out: cAMP agonism, % Efficacy
[7] = Table 1B, DiscoveRx, COS-7 cells, read-out: cAMP agonism, Emax

Emax (human GIP receptor [1]; [6])	Emax (human GIP receptor [3]; [7])	SMILES	Emax (human GIP receptor [1]; [4])	Emax (human GIP receptor [3]; [5])	also measured
		CC[C@H](C)[C@H](NC(=O)[C@H](CO)NC(=O)[C@H](Cc1ccc(O)cc1)NC(=O)[C@H](CC(=O)O)NC(=O)[C@H](CO)NC(=O)[C@@H](NC(=O)[C@H](Cc1ccccc1)NC(=O)[C@@H](N)[C@@H](C)O)[C@@H](C)CC)C(=O)N[C@@H](C)C(=O)N[C@@H](CC(C)C)C(=O)N[C@@H](CC(=O)O)C(=O)N[C@@H](CCCNC(=N)N)C(=O)N[C@H](C(=O)N[C@@H](CCCCNC(=O)CC[C@H](NC(=O)CCCCCCCCCCCCCCC(=O)O)C(=O)O)C(=O)N[C@@H](CCC(N)=O)C(=O)N[C@@H](CCC(N)=O)C(=O)N[C@@H](CC(=O)O)C(=O)N[C@@H](Cc1ccccc1)C(=O)N[C@H](C(=O)N[C@@H](CC(N)=O)C(=O)N[C@@H](Cc1c[nH]c2ccccc12)C(=O)N[C@@H](CC(C)C)C(=O)N[C@@H](CC(C)C)C(=O)N[C@@H](C)C(=O)N[C@@H](CCC(N)=O)C(=O)N[C@@H](CCCNC(=N)N)C(N)=O)C(C)C)[C@@H](C)CC [AT233] (HELM PEPTIDE1{T.F.I.S.D.Y.S.I.A.L.D.R.I.K.Q.Q.D.F.V.N.W.L.L.A.Q.R.[am]}|PEPTIDE2{[O=C(O)CCCCCCCCCCCCCCC(=O)[*:2]].[gGlu]}$PEPTIDE1,PEPTIDE2,14:R3-2:R2$$$V2.0; N-terminus assumed)	0%	28%	cAMP antagonism, % inhib (human GIP receptor [2]): 70%; IC50 (human GIP receptor [2]; cAMP antagonism, nM (IC50), agonist GIP1-42 at EC50): 34.2 nM
		CC[C@H](C)[C@H](NC(=O)[C@H](CO)NC(=O)[C@H](Cc1ccc(O)cc1)NC(=O)[C@H](CC(=O)O)NC(=O)[C@H](CO)NC(=O)[C@@H](NC(=O)[C@H](Cc1ccccc1)NC(=O)[C@@H](NC(=O)CNC(=O)[C@@H]1CCCN1)[C@@H](C)O)[C@@H](C)CC)C(=O)N[C@@H](C)C(=O)N[C@@H](CCSC)C(=O)N[C@@H](CC(=O)O)C(=O)N[C@@H](CCCNC(=N)N)C(=O)N[C@H](C(=O)N[C@@H](CCCCNC(=O)COCCOCCNC(=O)CC[C@H](NC(=O)CCCCCCCCCCCCCCC(=O)O)C(=O)O)C(=O)N[C@@H](CCC(N)=O)C(=O)N[C@@H](CCC(N)=O)C(=O)N[C@@H](CC(=O)O)C(=O)N[C@@H](Cc1ccccc1)C(=O)N[C@H](C(=O)N[C@@H](CC(N)=O)C(=O)N[C@@H](Cc1c[nH]c2ccccc12)C(=O)N[C@@H](CC(C)C)C(=O)N[C@@H](CC(C)C)C(=O)N[C@@H](C)C(=O)N[C@@H](CCC(N)=O)C(=O)N[C@@H](CCCNC(=N)N)C(=O)O)C(C)C)[C@@H](C)CC [AT273] (HELM PEPTIDE1{P.G.T.F.I.S.D.Y.S.I.A.M.D.R.I.K.Q.Q.D.F.V.N.W.L.L.A.Q.R}|PEPTIDE2{[O=C(O)CCCCCCCCCCCCCCC(=O)[*:2]].[gGlu].[O=C(COCCOCCN[*:1])[*:2]]}$PEPTIDE1,PEPTIDE2,16:R3-3:R2$$$V2.0; N-terminus assumed)	0%	35%	
		CC[C@H](C)[C@H](NC(=O)[C@H](CO)NC(=O)[C@H](Cc1ccc(O)cc1)NC(=O)[C@H](CC(=O)O)NC(=O)[C@H](CO)NC(=O)[C@@H](NC(=O)[C@H](Cc1ccccc1)NC(=O)[C@@H](NC(=O)CNC(=O)[C@@H](N)CCC(=O)O)[C@@H](C)O)[C@@H](C)CC)C(=O)N[C@@H](C)C(=O)N[C@@H](CCSC)C(=O)N[C@@H](CC(=O)O)C(=O)N[C@@H](CCCCN)C(=O)N[C@H](C(=O)N[C@@H](CCCCNC(=O)CCCCCCCCCCCCCCC(=O)O)C(=O)N[C@@H](CCC(N)=O)C(=O)N[C@@H](CCC(N)=O)C(=O)N[C@@H](CC(=O)O)C(=O)N[C@@H](Cc1ccccc1)C(=O)N[C@H](C(=O)N[C@@H](CC(N)=O)C(=O)N[C@@H](Cc1c[nH]c2ccccc12)C(=O)N[C@@H](CC(C)C)C(=O)N[C@@H](CC(C)C)C(=O)N[C@@H](C)C(=O)N[C@@H](CCC(N)=O)C(=O)N[C@@H](CCC(=O)O)C(N)=O)C(C)C)[C@@H](C)CC [AT477] (H-EGTFISDYSIAMDKIK(C16 diacid)QQDFVNWLLAQE-NH2; N-terminus assumed)	0%		cAMP agonism, Emax (human GIP receptor [3]; Table 1B, DiscoveRx, COS-7 cells): No Agonism
0%	10%	CC[C@H](C)[C@H](NC(=O)[C@H](CO)NC(=O)[C@H](Cc1ccc(O)cc1)NC(=O)[C@H](CCC(=O)O)NC(=O)[C@H](CO)NC(=O)[C@@H](NC(=O)[C@H](Cc1ccccc1)NC(=O)[C@@H](NC(=O)CNC(=O)[C@@H](N)CCC(=O)O)[C@@H](C)O)[C@@H](C)CC)C(=O)N[C@@H](C)C(=O)N[C@@H](CCSC)C(=O)N[C@@H](CCC(=O)O)C(=O)N[C@@H](CCCCN)C(=O)N[C@H](C(=O)N[C@@H](CCCCNC(=O)CCCCCCCCCCCCCCC(=O)O)C(=O)N[C@@H](CCC(N)=O)C(=O)N[C@@H](CCC(N)=O)C(=O)N[C@@H](CCC(=O)O)C(=O)N[C@@H](Cc1ccccc1)C(=O)N[C@H](C(=O)N[C@@H](CCC(N)=O)C(=O)N[C@@H](Cc1c[nH]c2ccccc12)C(=O)N[C@@H](CC(C)C)C(=O)N[C@@H](CC(C)C)C(=O)N[C@@H](C)C(=O)N[C@@H](CCC(N)=O)C(=O)N[C@@H](CCCCN)C(N)=O)C(C)C)[C@@H](C)CC [AT482] (H-EGTFISEYSIAMEKIK(C16 diacid)QQEFVQWLLAQK-NH2; N-terminus assumed)			
0%	8%	CC[C@H](C)[C@H](NC(=O)[C@H](Cc1ccccc1)NC(=O)[C@H](C)NC(=O)CNC(=O)[C@@H](N)CCC(=O)O)C(=O)N[C@@H](CO)C(=O)N[C@@H](CC(=O)O)C(=O)N[C@@H](Cc1ccc(O)cc1)C(=O)N[C@@H](C)C(=O)N[C@@H](C)C(=O)N[C@@H](C)C(=O)N[C@@H](CCSC)C(=O)N[C@@H](CC(=O)O)C(=O)N[C@@H](CCCCN)C(=O)N[C@H](C(=O)N[C@@H](CCCCNC(=O)CCCCCCCCCCCCCCC(=O)O)C(=O)N[C@@H](CCC(N)=O)C(=O)N[C@@H](CCC(N)=O)C(=O)N[C@@H](CC(=O)O)C(=O)N[C@@H](Cc1ccccc1)C(=O)N[C@H](C(=O)N[C@@H](C)C(=O)N[C@@H](Cc1c[nH]c2ccccc12)C(=O)N[C@@H](CC(C)C)C(=O)N[C@@H](CC(C)C)C(=O)N[C@@H](C)C(=O)N[C@@H](CCC(N)=O)C(=O)N[C@@H](CCCCN)C(N)=O)C(C)C)[C@@H](C)CC [AT483] (H-EGAFISDYAAAMDKIK(C16 diacid)QQDFVAWLLAQK-NH2; N-terminus assumed)			
